# Assay results reported in PMC8699473, “An Easily Expandable Multi-Drug LC-MS Assay for the Simultaneous Quantification of 57 Oral Antitumor Drugs in Human Plasma” (Cancers, 2021).
# Several values for one entry are separate records, joined by “and”; a condition that tells them apart may be missing. Equal values may be shown once.
# Legend:
# [1] = Freeze-thaw stability in spiked pooled human plasma; format: physicochemical
# [2] = Autosampler stability of ready for injection samples; format: physicochemical, human
# [3] = Long-term stability in spiked pooled human plasma
# [4] = Short-term stability in spiked pooled human plasma (bench-top, 4 °C, 56 °C)
# [5] = Plasma concentrations in patients on oral antitumor therapy (LC-MS); format: in vivo, human; settings: for Measured plasma concentration: 24 h
# Text: The liquid chromatography-mass spectrometer system consisted of a Thermo Scientific Dionex UltiMate^TM 3000 with an integrated and temperature controlled autosampler (Thermo Fisher Scientific, Dreieich, Germany). An Acquity UPLC® BEH C18 column (2.1 × 100 mm, 1.7 µm; Waters, Milford, CT, USA) equipped with an Acquity UPLC® BEH C18 VanGuard^TM Pre-Column (2.1 × 5 mm, 1.7 µm; Waters, Milford, CT, USA) was used for chromatographic separation. The Q-Exactive^TM Focus mass spectrometer (MS) was hyphenated with a heated electrospray ionization (HESI) source (both from Thermo Fisher Scientific, Dreieich, Germany).
# Chromatographic separation was achieved using a gradient elution with water containing 0.5% (v/v) FA (eluent A) and MeOH with 0.1% (v/v) FA (eluent B). The injection volume was 5 µL. The gradient program is shown in Supplement Table S2. The flow rate was 0.5 mL/min with a total run time of 15 min. The column heater was maintained at 50 °C and the autosampler temperature was 4 °C.
# The following MS and HESI settings were maintained for all analyses: Sheath gas, auxiliary gas, and sweep gas flow rates were set to 60, 20, and 0, respectively. The spray voltage was 4000 V. Both capillary and auxiliary gas heater temperatures were set to 400 °C. High-purity nitrogen gas was used for the HESI source gases and for the bath gas of the C-trap. […] The HESI source was configured in positive mode for ionization.
# The stock solutions were stored in glass vials at −80 °C. Aliquots of all stock solutions were combined in ACN (volumes of individual stock solution solvents are negligible) to obtain a standard solution of all analytes with an individual concentration of 200% of the respective trough level (cmin). Eight individual working standards were prepared by stepwise dilution of this standard solution with concentrations from 10 to 200% cmin (shown in Supplement Table S3). Furthermore, the four individual IS stock solutions were combined and diluted to 50 ng/mL with ACN. Calibration and validation standards were prepared by spiking 50 µL pooled human plasma with 10 µL of the respective working solution. Next, 250 µL IS solution (50 ng/mL in ACN) were added and vortexed vigorously. […] Then, 100 µL supernatant were transferred to 300 µL HPLC insert glass vials and diluted with 100 µL eluent (90% A/10% B). For blank samples, 50 µL pooled human plasma were combined with 10 µL ACN (instead of working solution) and prepared as described above. The calibration and validation standards were freshly prepared before every run. Patient plasma samples were prepared as calibration and validation standards (no additional processing step necessary), except for adding 10 µL ACN instead of 10 µL working standard. Before sample preparation, the frozen plasma samples were thawed in absence of light at 4 °C.
# Blood samples were collected over the entire dosing interval from patients treated with an oral anticancer drug as listed in Supplement Table S4. […] A maximum of two samples at two different time points throughout the entire dosing interval were collected per patient. Treatment duration before collection was at least five half-lives (depending on the specific oral anticancer drug). The samples were collected in K3-EDTA tubes.
# A total of 71 blood samples from 39 patients treated with 14 different oral anticancer drugs were collected (see Supplement Table S4 for details). All patients were recruited from independent outpatient clinics associated with the Comprehensive Cancer Center of the University Hospital Erlangen (CCC Erlangen-EMN). Of 71 blood samples, 41 were taken ±4 h of trough level (cmin).
# [6] = parameters: method as in supplement references [1-55] as printed per drug; settings: minimum steady-state blood plasma concentration after multiple dose administration; ref supplement references [1-55] per drug; cited from earlier work
smiles,measurement,setting,value
COc1cc2nccc(Oc3ccc(NC(=O)C4(C(=O)Nc5ccc(F)cc5)CC4)cc3)c2cc1OC [Cabozantinib],Freeze-Thaw Accuracy [%],[1]; validation standard 2xLLOV,99.6%
same,Freeze-Thaw Accuracy [%],[1]; validation standard LLOV,90.2%
same,Freeze-Thaw Accuracy [%],[1]; validation standard MOV,102.2%
same,Freeze-Thaw Accuracy [%],[1]; validation standard ULOV,95.0%
same,"Autosampler (72h, 4°C) Accuracy [%]",[2]; validation standard 2xLLOV,103.4%
same,"Autosampler (24h, 4°C) Accuracy [%]",[2]; validation standard LLOV,92.0%
same,"Autosampler (72h, 4°C) Accuracy [%]",[2]; validation standard LLOV,94.0%
same,"Autosampler (24h, 4°C) Accuracy [%]",[2]; validation standard MOV,105.6%
same,"Autosampler (72h, 4°C) Accuracy [%]",[2]; validation standard MOV,103.5%
same,"Autosampler (24h, 4°C) Accuracy [%]",[2]; validation standard ULOV,98.7%
same,"Long-term stability, 1 month, -20°C Accuracy [%]",[3]; validation standard 2xLLOV,98.4%
same,"Long-term stability, 1 month, -80°C Accuracy [%]",[3]; validation standard 2xLLOV,92.5%
same,"Long-term stability, 2 month, -80°C Accuracy [%]",[3]; validation standard 2xLLOV,100.3%
same,"Long-term stability, 3 month, -20°C Accuracy [%]",[3]; validation standard 2xLLOV,92.5%
same,"Long-term stability, 3 month, -80°C Accuracy [%]",[3]; validation standard 2xLLOV,94.6%
same,"Long-term stability, 6 weeks, 4°C, without daylight Accuracy [%]",[3]; validation standard 2xLLOV,96.8%
same,"Long-term stability, 1 month, -20°C Accuracy [%]",[3]; validation standard LLOV,91.9%
same,"Long-term stability, 1 month, -80°C Accuracy [%]",[3]; validation standard LLOV,89.4%
same,"Long-term stability, 2 month, -20°C Accuracy [%]",[3]; validation standard LLOV,97.7%
same,"Long-term stability, 2 month, -80°C Accuracy [%]",[3]; validation standard LLOV,100.2%
same,"Long-term stability, 3 month, -20°C Accuracy [%]",[3]; validation standard LLOV,90.4%
same,"Long-term stability, 3 month, -80°C Accuracy [%]",[3]; validation standard LLOV,91.8%
same,"Long-term stability, 6 weeks, 4°C, without daylight Accuracy [%]",[3]; validation standard LLOV,94.1%
same,"Long-term stability, 1 month, -20°C Accuracy [%]",[3]; validation standard MOV,97.7%
same,"Long-term stability, 1 month, -80°C Accuracy [%]",[3]; validation standard MOV,97.3%
same,"Long-term stability, 2 month, -20°C Accuracy [%]",[3]; validation standard MOV,101.6%
same,"Long-term stability, 2 month, -80°C Accuracy [%]",[3]; validation standard MOV,102.9%
same,"Long-term stability, 3 month, -20°C Accuracy [%]",[3]; validation standard MOV,100.0%
same,"Long-term stability, 3 month, -80°C Accuracy [%]",[3]; validation standard MOV,98.9%
same,"Long-term stability, 6 weeks, 4°C, without daylight Accuracy [%]",[3]; validation standard MOV,108.5%
same,"Long-term stability, 1 month, -20°C Accuracy [%]",[3]; validation standard ULOV,95.7%
same,"Long-term stability, 1 month, -80°C Accuracy [%]",[3]; validation standard ULOV,93.1%
same,"Long-term stability, 2 month, -20°C Accuracy [%]",[3]; validation standard ULOV,99.6%
same,"Long-term stability, 2 month, -80°C Accuracy [%]",[3]; validation standard ULOV,100.3%
same,"Long-term stability, 3 month, -20°C Accuracy [%]",[3]; validation standard ULOV,96.3%
same,"Long-term stability, 3 month, -80°C Accuracy [%]",[3]; validation standard ULOV,93.1%
same,"Long-term stability, 6 weeks, 4°C, without daylight Accuracy [%]",[3]; validation standard ULOV,101.8%
same,"Short-time stability (1h, 56°C) Accuracy [%]",[4]; validation standard 2xLLOV,49.1%
same,"Short-time stability (24h, 4°C, without daylight) Accuracy [%]",[4]; validation standard 2xLLOV,101.8%
same,"Short-time stability (24h, RT, with daylight) Accuracy [%]",[4]; validation standard 2xLLOV,103.6%
same,"Short-time stability (1h, 56°C) Accuracy [%]",[4]; validation standard LLOV,30.2%
same,"Short-time stability (24h, 4°C, without daylight) Accuracy [%]",[4]; validation standard LLOV,98.5%
same,"Short-time stability (24h, RT, with daylight) Accuracy [%]",[4]; validation standard LLOV,91.8%
same,"Short-time stability (1h, 56°C) Accuracy [%]",[4]; validation standard MOV,51.8%
same,"Short-time stability (24h, 4°C, without daylight) Accuracy [%]",[4]; validation standard MOV,102.2%
same,"Short-time stability (24h, RT, with daylight) Accuracy [%]",[4]; validation standard MOV,104.9%
same,"Short-time stability (1h, 56°C) Accuracy [%]",[4]; validation standard ULOV,44.1%
same,"Short-time stability (24h, 4°C, without daylight) Accuracy [%]",[4]; validation standard ULOV,96.1%
same,Measured plasma concentration,"[5]; 20 mg/day, ±4 h of trough level: yes",289.4 ng/mL and 291.0 ng/mL and 551.4 ng/mL
same,Measured plasma concentration,"[5]; 40 mg/day, ±4 h of trough level: yes",253.5 ng/mL
same,Measured plasma concentration,"[5]; 60 mg/day, ±4 h of trough level: no",1225.4 ng/mL and 700.9 ng/mL and 627.0 ng/mL
same,Measured plasma concentration,"[5]; 40/60 mg/day, ±4 h of trough level: yes",445.6 ng/mL and 562.2 ng/mL
same,Interpatient Coefficient of Variation [%],[5]; patient plasma concentrations,58.5%
same,Median Concentration of All Samples [% of r.c.],"[5]; patient plasma, all samples, r.c. = respective cmin",153.3 % of r.c.
same,cmin,[6],1380 ng/mL
